Legend:
Assay type in all cases: functional
[1] = system: NCI-H522; assay: Cytotoxicity against human NCI-H522 cells after 48 hrs by sulforhodamine B assay; settings: NCI-H522, 48 h
[2] = system: SNB-19; assay: Cytotoxicity against human SNB19 cells after 48 hrs by sulforhodamine B assay; settings: SNB-19, 48 h
[3] = system: SK-OV-3; assay: Cytotoxicity against human SKOV3 cells assessed as cell growth level at 1 uM after 48 hrs by sulforhodamine B assay
[4] = system: OVCAR-4; assay: Cytotoxicity against human OVCAR4 cells assessed as cell growth level at 10 nM after 48 hrs by sulforhodamine B assay
[5] = system: KM12; assay: Cytotoxicity against human KM12 cells assessed as cell growth level at 100 uM after 48 hrs by sulforhodamine B assay
[6] = system: CCRF-CEM; assay: Cytotoxicity against human CCRF-CEM cells assessed as cell growth level at 10 nM after 48 hrs by sulforhodamine B assay
[7] = system: U-251; assay: Cytotoxicity against human U251 cells assessed as cell growth level at 10 uM after 48 hrs by sulforhodamine B assay
[8] = system: NCI-H23; assay: Cytotoxicity against human NCI-H23 cells assessed as cell growth level at 10 nM after 48 hrs by sulforhodamine B assay
[9] = system: HT-29; assay: Cytotoxicity against human HT-29 cells assessed as cell growth level at 1 uM after 48 hrs by sulforhodamine B assay
[10] = system: SNB-75; assay: Cytotoxicity against human SNB75 cells after 48 hrs by sulforhodamine B assay; settings: SNB-75, 48 h
[11] = system: SF-539; assay: Cytotoxicity against human SF539 cells assessed as cell growth level at 10 uM after 48 hrs by sulforhodamine B assay
[12] = system: OVCAR-5; assay: Cytotoxicity against human OVCAR5 cells after 48 hrs by sulforhodamine B assay; settings: OVCAR-5, 48 h
[13] = system: OVCAR-4; assay: Cytotoxicity against human OVCAR4 cells assessed as cell growth level at 100 nM after 48 hrs by sulforhodamine B assay
[14] = system: LOX IMVI; assay: Cytotoxicity against human LOXIMVI cells assessed as cell growth level at 10 uM after 48 hrs by sulforhodamine B assay
[15] = system: CCRF-CEM; assay: Cytotoxicity against human CCRF-CEM cells assessed as cell growth level at 100 nM after 48 hrs by sulforhodamine B assay
[16] = system: K562; assay: Cytotoxicity against human K562 cells assessed as cell growth level at 1 uM after 48 hrs by sulforhodamine B assay
[17] = system: OVCAR-5; assay: Cytotoxicity against human OVCAR5 cells assessed as cell growth level at 100 nM after 48 hrs by sulforhodamine B assay
[18] = system: IGROV-1; assay: Cytotoxicity against human IGROV1 cells after 48 hrs by sulforhodamine B assay; settings: IGROV-1, 48 h
[19] = system: OVCAR-4; assay: Cytotoxicity against human OVCAR4 cells assessed as cell growth level at 1 uM after 48 hrs by sulforhodamine B assay
[20] = system: NCI-H226; assay: Cytotoxicity against human NCI-H226 cells after 48 hrs by sulforhodamine B assay; settings: NCI-H226, 48 h
[21] = system: UACC-257; assay: Cytotoxicity against human UACC257 cells assessed as cell growth level at 100 nM after 48 hrs by sulforhodamine B assay
[22] = system: Malme-3M; assay: Cytotoxicity against human MALME-3M cells assessed as cell growth level at 10 uM after 48 hrs by sulforhodamine B assay
[23] = system: MDA-MB-231; assay: Cytotoxicity against human MDA-MB-231/ATCC cells assessed as cell growth level at 100 nM after 48 hrs by sulforhodamine B assay
[24] = system: HOP-62; assay: Cytotoxicity against human HOP62 cells after 48 hrs by sulforhodamine B assay; settings: HOP-62, 48 h
[25] = system: LOX IMVI; assay: Cytotoxicity against human LOXIMVI cells assessed as cell growth level at 100 nM after 48 hrs by sulforhodamine B assay
[26] = system: HL-60(TB); assay: Cytotoxicity against human HL-60(TB) cells assessed as cell growth level at 100 nM after 48 hrs by sulforhodamine B assay
[27] = system: CCRF-CEM; assay: Cytotoxicity against human CCRF-CEM cells assessed as cell growth level at 1 uM after 48 hrs by sulforhodamine B assay
[28] = system: SK-OV-3; assay: Cytotoxicity against human SKOV3 cells assessed as cell growth level at 10 nM after 48 hrs by sulforhodamine B assay
[29] = system: MDA-MB-435; assay: Cytotoxicity against human MDA-MB-435 cells assessed as cell growth level at 100 uM after 48 hrs by sulforhodamine B assay
[30] = system: UACC-257; assay: Cytotoxicity against human UACC257 cells assessed as cell growth level at 100 uM after 48 hrs by sulforhodamine B assay
[31] = system: NCI-H522; assay: Cytotoxicity against human NCI-H522 cells assessed as cell growth level at 10 nM after 48 hrs by sulforhodamine B assay
[32] = system: SW-620; assay: Cytotoxicity against human SW620 cells assessed as cell growth level at 10 nM after 48 hrs by sulforhodamine B assay
[33] = system: SW-620; assay: Cytotoxicity against human SW620 cells assessed as cell growth level at 10 uM after 48 hrs by sulforhodamine B assay
[34] = Cytotoxicity against human NCI-ADR-RES cells assessed as cell growth level at 10 uM after 48 hrs by sulforhodamine B assay
[35] = system: UO-31; assay: Cytotoxicity against human UO31 cells after 48 hrs by sulforhodamine B assay; settings: UO-31, 48 h
[36] = system: SNB-75; assay: Cytotoxicity against human SNB75 cells assessed as cell growth level at 10 nM after 48 hrs by sulforhodamine B assay
[37] = read-out: LC50 (the source's name)
[38] = read-out: pLC50 (the source's name) (converted)

## O=c1oc2ccccc2cc1-c1csc(N/N=C/c2c[nH]c3ccccc23)n1
[1]; read-out: GI50
  GI50: 1.03 µM
[1]; read-out: LC50
  LC50 (50% lethal concentration): 4.96 µM
[1]; read-out: TGI
  TGI: 2.26 µM
[1]; read-out: pGI50 (converted)
  GI50: 1.02 µM
[1]; read-out: pLC50 (converted)
  LC50 (50% lethal concentration): 5.01 µM
[1]; read-out: pTGI (converted)
  TGI: 2.24 µM
[2]; read-out: GI50
  GI50: 3.39 µM
[2]; [37]
  CC50: > 100 µM
[2]; read-out: TGI
  TGI: 62.1 µM
[2]; read-out: pGI50 (converted)
  GI50: 3.39 µM
[2]; [38]
  CC50: > 100 µM
[2]; read-out: pTGI (converted)
  TGI: 61.7 µM
[3]
  Activity: 64%
[4]
  Activity: 90%
[5]
  Activity: -52%
[6]
  Activity: 100%
[7]
  Activity: -6.38%
[8]
  Activity: 86%
[9]
  Activity: 89%
[10]; read-out: GI50
  GI50: 2 µM
[10]; [37]
  CC50: > 100 µM
[10]; read-out: TGI
  TGI: 8.92 µM
[10]; read-out: pGI50 (converted)
  GI50: 2 µM
[10]; [38]
  CC50: > 100 µM
[10]; read-out: pTGI (converted)
  TGI: 8.91 µM
[11]
  Activity: 0.41%
[12]; read-out: GI50
  GI50: 2.34 µM
[12]; [37]
  CC50: > 100 µM
[12]; read-out: TGI
  TGI: 7.8 µM
[12]; read-out: pGI50 (converted)
  GI50: 2.34 µM
[12]; [38]
  CC50: > 100 µM
[12]; read-out: pTGI (converted)
  TGI: 7.76 µM
[13]
  Activity: 91%
[14]
  Activity: -52.19%
[15]
  Activity: 98%
[16]
  Activity: 100%
[17]
  Activity: 99%
[18]; read-out: GI50
  GI50: 1.54 µM
[18]; [37]
  CC50: > 100 µM
[18]; read-out: TGI
  TGI: 4.7 µM
[18]; read-out: pGI50 (converted)
  GI50: 1.55 µM
[18]; [38]
  CC50: > 100 µM
[18]; read-out: pTGI (converted)
  TGI: 4.68 µM
[19]
  Activity: 85%
[20]; read-out: GI50
  GI50: 2.38 µM
[20]; [37]
  CC50: > 100 µM
[20]; read-out: TGI
  TGI: 7.7 µM
[20]; read-out: pGI50 (converted)
  GI50: 2.4 µM
[20]; [38]
  CC50: > 100 µM
[20]; read-out: pTGI (converted)
  TGI: 7.76 µM
[21]
  Activity: 88%
[22]
  Activity: -10.02%
[23]
  Activity: 97%
[24]; read-out: GI50
  GI50: 3.73 µM
[24]; read-out: LC50
  LC50: > 100 µM
[24]; read-out: TGI
  TGI: 20 µM
[24]; read-out: pGI50 (converted)
  GI50: 3.72 µM
[24]; read-out: pLC50 (converted)
  LC50: > 100 µM
[24]; read-out: pTGI (converted)
  TGI: 20 µM
[25]
  Activity: 92%
[26]
  Activity: 97%
[27]
  Activity: 7%
[28]
  Activity: 94%
[29]
  Activity: -69%
[30]
  Activity: -89%
[31]
  Activity: 105%
[32]
  Activity: 98%
[33]
  Activity: 17.5%
[34]
  Activity: 24.9%
[35]; read-out: GI50
  GI50: 0.76 µM
[35]; [37]
  CC50: 5.47 µM
[35]; read-out: TGI
  TGI: 2.23 µM
[35]; read-out: pGI50 (converted)
  GI50: 0.759 µM
[35]; [38]
  CC50: 5.5 µM
[35]; read-out: pTGI (converted)
  TGI: 2.24 µM
[36]
  Activity: 94%
